From US8962660B2 (Bristol-Myers Squibb Company, priority 2013, dated 2015) come the findings set out here.

The structures appear in SMILES notation. Where a name gives a salt, the structure may show the parent alone.

This assay addresses T1, human GPR120 (Homo sapiens, UniProt Q5NUL3).
T1 construct: expressed in transfected cells; host or cells: CHOA12 cells
T1 sequence (Q5NUL3 1-361): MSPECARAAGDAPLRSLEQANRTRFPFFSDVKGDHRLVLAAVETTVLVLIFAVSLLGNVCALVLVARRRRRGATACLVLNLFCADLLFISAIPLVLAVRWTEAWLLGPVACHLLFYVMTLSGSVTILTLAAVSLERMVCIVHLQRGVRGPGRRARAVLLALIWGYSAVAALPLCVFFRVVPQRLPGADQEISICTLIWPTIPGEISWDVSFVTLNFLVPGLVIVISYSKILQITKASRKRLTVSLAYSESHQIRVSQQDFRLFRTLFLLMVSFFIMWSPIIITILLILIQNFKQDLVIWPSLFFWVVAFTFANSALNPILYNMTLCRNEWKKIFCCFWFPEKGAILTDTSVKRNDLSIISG
Nature of the assay: GPR120 pERK AlphaScreen SureFire assay (human). It is filed as cell-based. The following applies: CHO cells stably transfected with short form of human GPR120. From the text:
GPR120 activity was monitored by measuring phosphorylation of ERK (pERK), since G protein receptors are known to activate the ERK signaling cascade either directly and/or through recruitment of arrestin that serves as a scaffold for downstream signaling events.
GPR120 pERK AlphaScreen SureFire Assay
The human and mouse GPR120-mediated intracellular phosphorylated ERK assays were established using CHOA12 cells stably transfected with the short form of human or mouse GPR120 receptor. Cells were cultured in growth medium consisting of F-12 media (Invitrogen Cat. #11765) with 5% Charcoal/Dextran FBS (Invitrogen Cat. #12676-029), 500 μg/mL GENETICIN® (Life Technologies Cat. #10131-027) and 250 μg/mL Zeocin (Invitrogen Cat. #R250-01). Cells were cryo preserved at a concentration of 2×10^7 cells/mL, in 90% Charcoal/Dextran FBS and 10% DMSO, and frozen in liquid nitrogen at a low passage number.
For the pERK assay, 2×10^7 cells/mL cryopreserved human and mouse cells were thawed rapidly in a 37° C. water bath and added to a T-225 flask containing 50 mL growth medium. The flasks were placed in a tissue culture incubator overnight (37° C., 5% CO2). The next day, cells were harvested with trypsin (Gibco Cat. #25300-054), resuspended in serum-containing growth medium and counted using a Cellometer and volume adjusted to a concentration of 0.6×10^6cells/mL. Cells were plated into 384-well clear bottom tissue culture plates (BD Cat. #353962) at 50 μL/well, for a density of 30,000 cells/well using a MULTIDROP® and incubated for 16-18 hours (overnight) at 37° C. with 5% CO2. The next day, cells were serum starved in 30 μL of F-12 media without any serum or antibiotics for 2 hours at 37° C.
Test compounds were 3-fold, 11-point serially diluted in DMSO in a REMP assay plate (Matrix Cat. #4307) by Tecan and 5 μL was transferred into an ECHO source plate (LABCYTE® Cat. #LC-0200). Cells were then stimulated with 50 nL of compound dilutions using ECHO liquid handler for 7 minutes at 37° C. Compounds ranged from final assay concentrations of 33.33 μM to 0.56 nM.
The media was then dumped and cells lysed with 20 μL of 1× Lysis buffer from the AlphaScreen SureFire Phospho-ERK 1/2 Kit (Perkin Elmer Cat. #6760617M). The lysis buffer was diluted 5-fold with water before use. The plate was agitated on a shaker for 10 minutes after which 2 μL was transferred into a 384-well white proxiplate (Perkin Elmer Cat. #6008289). The SureFire assay reagent mix was prepared by mixing 60 parts Reaction Buffer, 10 parts Activation Buffer, 1 part Donor Beads, 1 part Acceptor Beads (Perkin Elmer Cat. #TGRES10K). 3.5 μL/well of this reagent mix was manually added to the proxiplate with a multichannel pipettor. Plates were spun down at 1000 rpm for 2 minutes, followed by light-protected incubation at room temperature for 2 hours. The plates were read on the Alpha-technology compatible Envision multilabel plate reader using AlphaScreen protocol according to manufacturer's specifications. The agonist effect of compounds was expressed as 100×(average sample−average blank)/(average total−average blank) where sample is the luminescence activity in the presence of test compound, blank is equal to the luminescence activity in the presence of DMSO control and the total is signal induced by 50 μM linolenic acid as reference compound. Activation data for the test compound over a range of concentrations was plotted as percentage activation of the test compound (100%=maximum response). After correcting for background, EC50 values were determined The EC50 is defined as the concentration of test compound which produces 50% of the maximal response and was quantified using the 4 parameter logistic equation to fit the data.
The human and mouse GPR120-mediated intracellular phosphorylated ERK assays were also established using CHO-K1 cells stably transfected with the short form of human or mouse GPR120 receptor. […]
As to `O=C(O)COCCC12CCC(c3cccc(OC4CCCCC4)c3)(CC1)OC2` [Example 8, 2-(2-(1-(3-(Cyclohexyloxy)phenyl)-2-oxabicyclo[2.2.2]octan-4-yl)ethoxy)acetic acid], it took 1050 nM to reach a half-maximal effect (EC50). The same measure for `CC(C)COc1cccc(C23CCC(CCOCC(=O)O)(CC2)CO3)c1` [Example 9, 2-(2-(1-(3-Isobutoxyphenyl)-2-oxabicyclo[2.2.2]octan-4-yl)ethoxy)acetic acid]: 1280 nM. Next, `O=C(O)CCCCC12CCC(c3cccc(OC4CCCCO4)c3)(CC1)OC2` (stereo not drawn) [Example 10, 5-(1-(3-(Tetrahydro-2H-pyran-2-yloxy)phenyl)-2-oxabicyclo[2.2.2]octan-4-yl)pentanoic acid]: 640 nM; `O=C(O)/C=C/CCC12CCC(c3cccc(Oc4ccccc4)c3)(CC1)OC2` [Example 11, (E)-5-(1-(3-Phenoxyphenyl)-2-oxabicyclo[2.2.2]octan-4-yl)pent-2-enoic acid]: 100 nM.

Turning to `O=C(O)COCCCC12CCC(c3cccc(Oc4ccccc4)c3)(CC1)OC2` [Example 12, 2-(3-(1-(3-Phenoxyphenyl)-2-oxabicyclo[2.2.2]octan-4-yl)propoxy)acetic acid], the half-maximal effective concentration (EC50) came to 980 nM.

In the case of `O=C(O)CC1CC1CC12CCC(c3cccc(Oc4ccccc4)c3)(CC1)OC2` (stereo not drawn) [Example 16, 2-(2-((1-(3-Phenoxyphenyl)-2-oxabicyclo[2.2.2]octan-4-yl)methyl)cyclopropyl)acetic acid (trans)], it took 160 nM to reach a half-maximal effect (EC50).

Turning to `C=C(C)COc1cccc(C23CCC(CCOCC(=O)O)(CC2)CO3)c1` [Example 19, 2-(2-(1-(3-(2-Methylallyloxy)phenyl)-2-oxabicyclo[2.2.2]octan-4-yl)ethoxy)acetic acid], the EC50 stood at 1980 nM.

`CC(C)=COc1cccc(C23CCC(CCOCC(=O)O)(CC2)CO3)c1` [Example 20, 2-(2-(1-(3-(2-Methylprop-1-enyloxy)phenyl)-2-oxabicyclo[2.2.2]octan-4-yl)ethoxy)acetic acid] had an EC50 of 650 nM.

Turning to `O=C(O)COCCC12CCC(c3cccc(Oc4cccnc4)c3)(CC1)OC2` [Example 21, 2-(2-(1-(3-(Pyridin-3-yloxy)phenyl)-2-oxabicyclo[2.2.2]octan-4-yl)ethoxy)acetic acid, TFA salt], the EC50 is 6860 nM. The compound `COc1cccc(Oc2cccc(C34CCC(CCOCC(=O)O)(CC3)CO4)c2)c1` [Example 22, 2-(2-(1-(3-(3-Methoxyphenoxy)phenyl)-2-oxabicyclo[2.2.2]octan-4-yl)ethoxy)acetic acid] returned an EC50 of 380 nM. As for `O=C(O)COCCC12CCC(c3cc(F)cc(Oc4ccccc4)c3)(CC1)OC2` [Example 23, 2-(2-(1-(3-Fluoro-5-phenoxyphenyl)-2-oxabicyclo[2.2.2]octan-4-yl)ethoxy)acetic acid], the EC50 worked out at 310 nM.

In turn, `O=C(O)COCCC12CCC(c3cccc(C4=CCCC4)c3)(CC1)OC2` [Example 24, 2-(2-(1-(3-Cyclopentenylphenyl)-2-oxabicyclo[2.2.2]octan-4-yl)ethoxy)acetic acid] came in with an EC50 of 800 nM. The same measure for `O=C(CCCCC12CCC(c3cccc(Oc4ccccc4)c3)(CC1)OC2)NS(=O)(=O)c1ccccc1` [Example 25, 5-(1-(3-Phenoxyphenyl)-2-oxabicyclo[2.2.2]octan-4-yl)-N-(phenylsulfonyl)pentanamide]: 590 nM. As for `CS(=O)(=O)NC(=O)CCCCC12CCC(c3cccc(Oc4ccccc4)c3)(CC1)OC2` [Example 26, N-(Methylsulfonyl)-5-(1-(3-phenoxyphenyl)-2-oxabicyclo[2.2.2]octan-4-yl)pentanamide], the EC50 is 170 nM. Turning to `O=C(O)CNC(=O)CC12CCC(c3cccc(Oc4ccccc4)c3)(CC1)OC2` [Example 27, 2-(2-(1-(3-Phenoxyphenyl)-2-oxabicyclo[2.2.2]octan-4-yl)acetamido)acetic acid], the response was half-maximal at 5020 nM (EC50).

In turn, `O=C(O)COC(=O)NCC12CCC(c3cccc(Oc4ccccc4)c3)(CC1)OC2` [Example 28, 2-((1-(3-Phenoxyphenyl)-2-oxabicyclo[2.2.2]octan-4-yl)methylcarbamoyloxy)acetic acid] registered an EC50 of 1980 nM. `O=C(O)CCS(=O)(=O)CC12CCC(c3cccc(Oc4ccccc4)c3)(CC1)OC2` [Example 29, 3-((1-(3-Phenoxyphenyl)-2-oxabicyclo[2.2.2]octan-4-yl)methylsulfonyl)propanoic acid] showed an EC50 of 1570 nM. The same measure for `O=C(O)CCOCC12CCC(c3cccc(Oc4ccccc4)c3)(CC1)CO2` [Example 30, 3-((4-(3-Phenoxyphenyl)-2-oxabicyclo[2.2.2]octan-1-yl)methoxy)propanoic acid]: 140 nM. On to `O=C(O)COCCC12CCC(c3cccc(Oc4ccccc4)c3)(CC1)CO2` [Example 31, 2-(2-(4-(3-Phenoxyphenyl)-2-oxabicyclo[2.2.2]octan-1-yl)ethoxy)acetic acid], for which the midpoint of the response, the EC50, lay at 280 nM. Next, `COC(CCC12CCC(c3cccc(Oc4ccccc4)c3)(CC1)OC2)CC(=O)O` (stereo not drawn) [Example 33, 3-Methoxy-5-(1-(3-phenoxyphenyl)-2-oxabicyclo[2.2.2]octan-4-yl)pentanoic acid]: 1900 nM. In turn, `O=C(O)C/C=C/CC12CCC(c3cccc(Oc4ccccc4)c3)(CC1)OC2` [Example 34, (E)-5-(1-(3-Phenoxyphenyl)-2-oxabicyclo[2.2.2]octan-4-yl)pent-3-enoic acid] returned an EC50 of 70 nM.

Turning to `O=C(O)/C=C\CCC12CCC(c3cccc(Oc4ccccc4)c3)(CC1)OC2` [Example 35, (Z)-5-(1-(3-Phenoxyphenyl)-2-oxabicyclo[2.2.2]octan-4-yl)pent-2-enoic acid], it took 660 nM to reach a half-maximal effect (EC50). Next, `CC(C)COc1cc(F)cc(C23CCC(CCOCC(=O)O)(CC2)CO3)c1` [Example 36, 2-(2-(1-(3-Fluoro-5-isobutoxyphenyl)-2-oxabicyclo[2.2.2]octan-4-yl)ethoxy)acetic acid]: 720 nM; `O=C(O)COCCC12CCC(c3ccccc3Oc3ccccc3)(CC1)OC2` [Example 37, 2-(2-(1-(2-Phenoxyphenyl)-2-oxabicyclo[2.2.2]octan-4-yl)ethoxy)acetic acid]: 1140 nM. The same measure for `O=C(O)COCCC12CCC(c3cccc(Oc4ccc(F)cc4)c3)(CC1)OC2` [Example 39, 2-(2-(1-(3-(4-fluorophenoxy)phenyl)-2-oxabicyclo[2.2.2]octan-4-yl)ethoxy) acetic acid]: 200 nM; for `O=C(O)COCCC12CCC(c3cccc(Oc4ccc(Cl)cc4)c3)(CC1)OC2` [Example 40, 2-(2-(1-(3-(4-chlorophenoxy)phenyl)-2-oxabicyclo[2.2.2]octan-4-yl)ethoxy) acetic acid]: 300 nM.

Turning to `Cc1ccc(Oc2cccc(C34CCC(CCOCC(=O)O)(CC3)CO4)c2)cc1` [Example 41, 2-(2-(1-(3-(p-tolyloxy)phenyl)-2-oxabicyclo [2.2.2]octan-4-yl)ethoxy)acetic acid], the EC50 turned out to be 200 nM.
